Reference: ChEMBL document CHEMBL3396968, “Isolation and cytotoxicity evaluation of taxanes from the barks of Taxus wallichiana var. mairei” (Bioorg Med Chem Lett, 2015)

Columns and labels:
MCF7 = experiment: Antiproliferative activity against human MCF7 cells assessed as growth inhibition after 48 hrs by sulforhodamine B assay; format: functional, cell-based; settings: MCF7, 48 h
[1] = Antiproliferative activity against human A2780/TAX cells assessed as growth inhibition after 48 hrs by sulforhodamine B assay; format: functional, cell-based
A2780 = experiment: Antiproliferative activity against human A2780 cells assessed as growth inhibition after 48 hrs by sulforhodamine B assay; format: functional, cell-based; settings: A2780, 48 h
[2] = Antiproliferative activity against human MCF7/DX cells assessed as growth inhibition after 48 hrs by sulforhodamine B assay; format: functional, cell-based
[3] = Antiproliferative activity against human HCT8 cells assessed as growth inhibition after 48 hrs by sulforhodamine B assay; format: functional, cell-based; settings: HCT-8, 48 h
[4] = Antiproliferative activity against human A549/CDDP cells assessed as growth inhibition after 48 hrs by sulforhodamine B assay; format: functional, cell-based; settings: A549, 48 h
A549 = experiment: Antiproliferative activity against human A549 cells assessed as growth inhibition after 48 hrs by sulforhodamine B assay; format: functional, cell-based; settings: A549, 48 h
[5] = Antiproliferative activity against human HCT8/VCT cells assessed as growth inhibition after 48 hrs by sulforhodamine B assay; format: functional, cell-based
[6] = Antiproliferative activity against mouse NIH/3T3 cells assessed as growth inhibition after 48 hrs by sulforhodamine B assay; format: cell-based; settings: NIH3T3, 48 h
SW480 = experiment: Antiproliferative activity against human SW480 cells assessed as growth inhibition after 48 hrs by sulforhodamine B assay; format: functional, cell-based; settings: SW480, 48 h
HepG2 = experiment: Antiproliferative activity against human HepG2 cells assessed as growth inhibition after 48 hrs by sulforhodamine B assay; format: functional, cell-based; settings: HepG2, 48 h

Structure (SMILES)	IC50 (MCF7) [nM]	IC50 [1] [µM]	IC50 (A2780) [nM]	IC50 [2] [µM]	IC50 [3] [µM]	IC50 [4] [µM]	IC50 (A549) [nM]	IC50 [5] [µM]	IC50 [6] [µM]	IC50 (SW480) [µM]	IC50 (HepG2) [µM]
CC(=O)O[C@H]1C(=O)[C@@]2(C)[C@H]([C@H](OC(=O)c3ccccc3)[C@]3(O)C[C@H](OC(=O)[C@H](O)[C@@H](NC(=O)OC(C)(C)C)c4ccccc4)C(C)=C1C3(C)C)[C@]1(OC(C)=O)CO[C@@H]1C[C@@H]2O	< 2	0.42	< 2	< 0.002	< 0.002	< 0.002	< 2	0.89	< 0.002	–	–
CCCCCC(=O)N[C@@H](c1ccccc1)[C@@H](O)C(=O)O[C@H]1C[C@@]2(O)[C@@H](OC(=O)c3ccccc3)[C@@H]3[C@]4(OC(C)=O)CO[C@@H]4C[C@H](O[C@@H]4OC[C@@H](O)[C@H](O)[C@H]4O)[C@@]3(C)C(=O)[C@H](O)C(=C1C)C2(C)C	> 25000	> 25	1500	> 25	8.5	0.64	19000	> 25	> 25	> 25	> 25
C=C1[C@@H](O[C@@H]2O[C@H](CO)[C@@H](O)[C@H](O)[C@H]2O)C[C@H](OC(C)=O)[C@]2(C)[C@@H]1C[C@@H]1C[C@H](O)C(C)=C([C@@H](OC(C)=O)[C@@H]2OC(C)=O)C1(C)C	> 25000	> 25	> 25000	> 25	> 25	> 25	2200	> 25	> 25	16	6.1
CC(=O)O[C@@]12CO[C@@H]1C[C@H](O[C@@H]1OC[C@@H](O)[C@H](O)[C@H]1O)[C@@]1(C)C(=O)[C@H](O)C3=C(C)[C@@H](OC(=O)[C@H](O)[C@@H](NC(=O)c4ccccc4)c4ccccc4)C[C@@](O)([C@@H](OC(=O)c4ccccc4)[C@H]21)C3(C)C	800	> 25	1600	1.4	0.26	2.5	2100	> 25	> 25	16	3
C/C=C(\C)C(=O)N[C@@H](c1ccccc1)[C@@H](O)C(=O)O[C@H]1C[C@@]2(O)[C@@H](OC(=O)c3ccccc3)[C@@H]3[C@]4(OC(C)=O)CO[C@@H]4C[C@H](O[C@@H]4OC[C@@H](O)[C@H](O)[C@H]4O)[C@@]3(C)C(=O)[C@H](OC(C)=O)C(=C1C)C2(C)C	29	17	> 25000	> 25	> 25	> 25	2200	> 25	> 25	7.2	5.8
CC(=O)O[C@H]1C(=O)[C@]2(C)[C@@H](O[C@@H]3OC[C@@H](O)[C@H](O)[C@H]3O)C[C@H]3OC[C@@]3(OC(C)=O)[C@H]2[C@H](OC(=O)c2ccccc2)[C@]2(O)C[C@H](OC(=O)[C@H](O)[C@@H](NC(=O)c3ccccc3)c3ccccc3)C(C)=C1C2(C)C	160	> 25	850	> 25	5.9	0.92	390	> 25	> 25	5.6	1.2
C/C=C(\C)C(=O)N[C@@H](c1ccccc1)[C@@H](O)C(=O)O[C@H]1C[C@@]2(O)[C@@H](OC(=O)c3ccccc3)[C@@H]3[C@]4(OC(C)=O)CO[C@@H]4C[C@H](O[C@@H]4OC[C@@H](O)[C@H](O)[C@H]4O)[C@@]3(C)C(=O)[C@H](O)C(=C1C)C2(C)C	140	> 25	3500	> 25	> 25	3.1	1900	> 25	> 25	20	3.9
CC(=O)O[C@@]12CO[C@@H]1C[C@H](O)[C@@]1(C)C(=O)[C@H](O)C3=C(C)[C@@H](O)C[C@@](O)([C@@H](OC(=O)c4ccccc4)[C@H]21)C3(C)C	17000	16	> 25000	> 25	> 25	25	21000	> 25	> 25	–	–
C=C1[C@@H](OC(=O)C[C@H](c2ccccc2)N(C)C)C[C@H](OC(C)=O)[C@]2(C)[C@@H]1C[C@@H]1C[C@H](OC(C)=O)C(C)=C([C@@H](OC(C)=O)[C@@H]2OC(C)=O)C1(C)C	40	> 25	5100	> 25	> 25	14	12000	> 25	10	> 25	15
CC(=O)O[C@@]12CO[C@@H]1C[C@@H](O)[C@@]1(C)C(=O)[C@H](O)C3=C(C)[C@@H](OC(=O)[C@H](O)[C@@H](NC(=O)c4ccccc4)c4ccccc4)C[C@@](O)([C@@H](OC(=O)c4ccccc4)[C@H]21)C3(C)C	12	7.2	30	> 25	13	0.024	11	11	2.2	0.059	0.095
C=C1[C@@H](OC(=O)/C=C/c2ccccc2)C[C@H](OC(C)=O)[C@]2(C)[C@@H]1C[C@@H]1C[C@H](OC(C)=O)C(C)=C([C@@H](OC(C)=O)[C@@H]2OC(C)=O)C1(C)C	> 25000	> 25	9700	> 25	11	7.1	9400	12	15	> 25	> 25
CC(=O)O[C@H]1C(=O)[C@@]2(C)[C@H]([C@H](OC(=O)c3ccccc3)[C@]3(O)C[C@H](O)C(C)=C1C3(C)C)[C@]1(OC(C)=O)CO[C@@H]1C[C@@H]2O [BACCATIN III]	7400	> 25	> 25000	> 25	12	24	> 25000	> 25	> 25	–	–
C/C=C(\C)C(=O)N[C@@H](c1ccccc1)[C@@H](O)C(=O)O[C@H]1C[C@@]2(O)[C@@H](OC(=O)c3ccccc3)[C@@H]3[C@]4(OC(C)=O)CO[C@@H]4C[C@H](O)[C@@]3(C)C(=O)[C@H](OC(C)=O)C(=C1C)C2(C)C [CEPHALOMANNINE]	4	4.9	13	7	> 25	0.005	8	7.2	0.6	0.033	0.02
CC(=O)O[C@H]1C(=O)[C@@]2(C)[C@H]([C@H](OC(=O)c3ccccc3)[C@]3(O)C[C@H](OC(=O)[C@H](O)[C@@H](NC(=O)c4ccccc4)c4ccccc4)C(C)=C1C3(C)C)[C@]1(OC(C)=O)CO[C@@H]1C[C@@H]2O [PACLITAXEL]	–	4.4	–	6.2	0.066	–	–	–	0.58	0.021	0.009
C=C1[C@@H](O)C[C@H](OC(C)=O)[C@@]2(COC(=O)c3ccccc3)[C@@H](OC(C)=O)[C@H](OC(C)=O)[C@@]3(O)[C@]4(C)OC[C@]3(C)C(CC4=O)[C@@H](OC(C)=O)[C@H]12 [TAXININE M]	> 25000	> 25	> 25000	> 25	> 25	> 25	12000	> 25	> 25	16	> 25
